Experimental data: article PMC10350924, “Design, Synthesis, and Pharmacological Characterization of a Potent Soluble Epoxide Hydrolase Inhibitor for the Treatment of Acute Pancreatitis” (Journal of Medicinal Chemistry, 2023)
“And” between values parts separate entries of the source, which are not always exact repeats. Equal values may be shown once.

What was measured:
5-LOX = target: T1, 5-LOX (Homo sapiens, UniProt P09917); experiment: 5-LOX product formation in human activated PMNL (A23187); format: cell-based; set-up: Freshly isolated PMNL (5 × 10^6) suspended in PBS pH 7.4 with 1 mg/mL glucose were preincubated with the test compounds; endogenous in cells; host or cells: human PMNL from donor blood; remaining activity: dose or concentration left out as unconfirmed; settings: for remaining activity at 10 µM: read-out: 5-LOX residual activity in PMNL (%) at 10 μM; for remaining activity: PMNL, read-out: 5-LO residual activity in PMNL (%)
T1 sequence (P09917 1-674): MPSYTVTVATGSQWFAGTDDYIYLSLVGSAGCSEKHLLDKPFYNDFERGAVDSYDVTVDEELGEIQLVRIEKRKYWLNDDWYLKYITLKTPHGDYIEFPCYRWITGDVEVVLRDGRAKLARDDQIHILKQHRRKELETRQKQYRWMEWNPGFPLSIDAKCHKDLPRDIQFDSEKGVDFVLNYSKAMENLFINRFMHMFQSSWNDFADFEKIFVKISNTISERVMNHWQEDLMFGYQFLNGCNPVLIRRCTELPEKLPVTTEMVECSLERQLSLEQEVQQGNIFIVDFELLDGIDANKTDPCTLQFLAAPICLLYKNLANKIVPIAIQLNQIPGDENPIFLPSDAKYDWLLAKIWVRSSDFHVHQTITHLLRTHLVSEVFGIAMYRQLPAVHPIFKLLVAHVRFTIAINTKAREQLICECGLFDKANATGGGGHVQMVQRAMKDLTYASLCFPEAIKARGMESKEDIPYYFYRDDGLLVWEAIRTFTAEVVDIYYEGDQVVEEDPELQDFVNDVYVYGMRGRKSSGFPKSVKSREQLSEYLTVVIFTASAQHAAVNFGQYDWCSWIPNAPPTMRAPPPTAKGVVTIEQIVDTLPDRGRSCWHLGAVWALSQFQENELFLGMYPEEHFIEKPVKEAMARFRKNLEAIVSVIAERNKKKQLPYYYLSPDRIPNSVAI
Experimental: Human PMNL were freshly isolated from leukocyte concentrates that were obtained from the Institute for Transfusion Medicine of the University Hospital Jena (Germany). […] These volunteers regularly donated blood (every 8–12 weeks) and were physically inspected by a clinician. […] Leukocytes were concentrated by centrifugation (4000g/20 min/20 °C) of freshly withdrawn blood. […] PMNL were obtained from the cell pellet. […] The reaction was stopped with an equal volume of methanol containing PGB1 (200 ng) as internal standard. Major 5-LOX products (all-trans isomers of LTB and 5-HETE, and additionally LTB4) were extracted and analyzed by RP-HPLC as described for the determination of cell-free 5-LOX activity.

Human recombinant sEH = target: T2, Human recombinant sEH (Homo sapiens, UniProt P34913); experiment: Cell-free sEH activity (PHOME fluorescence); format: biochemical; settings: human isolated sEH
T2 construct: made in house; host or cells: Sf9 insect cells (recombinant baculovirus)
T2 sequence (P34913 1-555): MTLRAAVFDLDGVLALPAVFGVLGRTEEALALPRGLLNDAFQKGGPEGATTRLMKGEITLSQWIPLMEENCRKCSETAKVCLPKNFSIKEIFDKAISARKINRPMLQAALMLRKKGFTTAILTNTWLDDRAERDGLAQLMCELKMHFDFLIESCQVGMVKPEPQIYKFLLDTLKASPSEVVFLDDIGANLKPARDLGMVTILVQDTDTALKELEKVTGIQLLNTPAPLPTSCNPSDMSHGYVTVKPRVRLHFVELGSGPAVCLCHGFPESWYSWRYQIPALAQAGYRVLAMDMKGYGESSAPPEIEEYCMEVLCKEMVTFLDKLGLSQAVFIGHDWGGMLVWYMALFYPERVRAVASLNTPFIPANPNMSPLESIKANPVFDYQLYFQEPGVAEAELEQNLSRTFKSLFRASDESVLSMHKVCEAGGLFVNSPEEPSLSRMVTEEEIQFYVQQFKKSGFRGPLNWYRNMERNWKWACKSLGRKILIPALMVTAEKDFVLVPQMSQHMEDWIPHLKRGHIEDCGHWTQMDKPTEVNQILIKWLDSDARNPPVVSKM
Experimental: Human recombinant sEH was expressed in Sf9 insect cells and purified by affinity chromatography. […] Elution with 4-fluorochalcone oxide in PBS pH 7.4 with 1 mM dithiothreitol and 1 mM EDTA yielded sEH, which was dialyzed and concentrated. Purified sEH (60 ng) in 25 mM Tris HCl pH 7 with 0.1 mg/mL bovine serum albumin (BSA) was preincubated with the vehicle (DMSO) or test compounds for 1 min at room temperature. The sEH substrate PHOME (20 μM, Cayman Chemicals) was added to start the enzymatic reaction, which was stopped after 60 min in the dark by the addition of ZnSO4 (200 mM).

Mouse plasma stability = format: in vitro ADME; settings: 37 °C, 5 μM
Experimental: Mouse plasma is warmed to 37 °C for 10 min, mixed, and centrifuged to pellet any aggregated protein. Biotransformation is initiated by adding 1.25 μL of compound solution (5 μM final incubation concentration), and the incubation was carried out at 37 °C for 120 min in a Thermomixer comfort (Eppendorf, Hamburg, Germany). At each specified time point (0, 60, and 120 min), compounds were removed into 200 μL of ice-cold methanol containing IS to stop degradation. Finally, the concentration of the test compound was quantified by LC-MS. All experiments were performed in triplicate. Procaine (low stability) and procainamide (high stability) were used as controls.

SMILES	remaining activity at 10 µM (5-LOX; human activated PMNL) [%]	remaining activity (5-LOX) [%]	IC50 (5-LOX; human activated PMNL)	IC50 (Human recombinant sEH) [nM]	mouse plasma stability (Mouse plasma stability; 1.0 h) [%]	mouse plasma stability (Mouse plasma stability; 2.0 h) [%]
O=C(Nc1ccc2c(c1)CCN2Cc1ccc(F)cc1)NC12C[C@H]3C[C@@H](C1)C[C@@H](C2)C3 [Compound 6, 1-((3S,5S,7S)-Adamantan-1-yl)-3-(1-(4-fluorobenzyl)indolin-5-yl)urea]	35.4 ± 3.1	35.4 ± 3.1	240 nM and 243 nM	7.22 ± 1.11	97.3 ± 0.7	100.7 ± 2.3
O=C(NCC12C[C@H]3C[C@@H](C1)C[C@@H](C2)C3)Nc1ccc2c(ccn2Cc2ccc(F)cc2)c1 [Compound 27, 1-(((3R,5R,7R)-Adamantan-1-yl)methyl)-3-(1-(4-fluorobenzyl)-1H-indol-5-yl)urea]	59.4 ± 6.7	59.4 ± 6.7	–	1.75 ± 0.593	100.3 ± 0.2	102.2 ± 4.8
CC(C)c1ccc(Cn2ccc3cc(NC(=O)NCC45C[C@H]6C[C@@H](C4)C[C@@H](C5)C6)ccc32)cc1 [Compound 28, 1-(((3R,5R,7R)-Adamantan-1-yl)methyl)-3-(1-(4-isopropylbenzyl)-1H-indol-5-yl)urea]	93.6 ± 4.8	93.6 ± 4.8	–	2 ± 1.1	98.4 ± 3.3	101.3 ± 3.8
O=C(NCC12C[C@H]3C[C@@H](C1)C[C@@H](C2)C3)Nc1ccc2c(ccn2CCc2ccc(F)cc2)c1 [Compound 30, 1-(((3R,5R,7R)-Adamantan-1-yl)methyl)-3-(1-(4-fluorophenethyl)-1H-indol-5-yl)urea]	65.1 ± 6.2	65.1 ± 6.2	–	1.1 ± 0.4	96.2 ± 3.4	97.0 ± 2.3
O=C(NCC12C[C@H]3C[C@@H](C1)C[C@@H](C2)C3)Nc1ccc2c(ccn2C(=O)c2ccc(F)cc2)c1 [Compound 36, 1-(((3R,5R,7R)-Adamantan-1-yl)methyl)-3-(1-(4-fluorobenzoyl)-1H-indol-5-yl)urea]	58.1 ± 5.5	58.1 ± 5.5	–	2.6 ± 0.4	98.2 ± 2.0	96.2 ± 2.8
